Measured values: US9243281B2, “Neuroprotective chemicals and methods for identifying and using same” (Board of Regents of The University of Texas System, priority 2013, dated 2016)

What was measured:
[1] = system: NAD levels in doxorubicin-treated U2OS cells; experiment: NAD rebound assay in doxorubicin-treated cells (NAD/NADH Glo); type: cell-based; details: 0.5 μM doxorubicin 45 h
Method: FIG. 12. Five-point dose response curves (DRC) of all tested compounds in NAD rebound assay. […] Cellular NAD abundance was determined by NAD/NADH Glo assay kit.
Each chemical variant of P7C3 was co-incubated with doxorubicin on cultured U2OS cells at five doses (0.03 uM, 0.1 uM, 0.3 uM, 1 uM and 3 uM). After 45 hrs incubation, cells were assayed for intracellular levels of NAD (FIG. 12).
Assay was performed following the manufacturer's protocol. NAD/NADH-Glo reagent contains the NAD Cycling Enzyme that converts NAD+ to NADH. In the presence of NADH, the enzyme reductase reduces a proluciferin reductase substrate to form luciferin. Cells were grown in 96- or 384-well plates. 50 μl or 15 μl of NAD/NADH-Glo™ Detection Reagent were added to each well. The resulting luminescence signals were measured by Tecan plate reader or EnVison multimode plate reader (Perkin Elmer).

[2] = molecular target: T1, p70 (NAMPT) (Homo sapiens, UniProt P43490); experiment: binding competition for photo-crosslinking of P7C3-S326 to p70 in H2122 cells; details: 0.3 μM P7C3-S326 plus 5 μM competitor, p70 band intensity, P7C3-S326 alone compared with plus competitor, vehicle 1.0
T1 construct: endogenous in cells; host or cells: H2122 lung cancer cells
How it was run: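 Competition for photo-crosslinking: P7C3 analogs (5 uM) were added alongside the 0.3 μM P7C3-S326 probe to H2122 cells for 2 hours before 15 minutes of 306 nm UV irradiation. In-gel fluorescence of the p70 band after click labeling was normalized to DMSO.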

[3] = system: hippocampal neurogenesis (Dentate Gyrus); experiment: in vivo neurogenesis assay (BrdU+ cells in dentate gyrus); design: species or system mice; details: for Neurogenesis # BrdU+ Cells (X10E06)/mm3 Dentate Gyrus: living mice, vehicle (DMSO) 7.3
How it was run: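 New hippocampal cells were tracked by daily BrdU injections and anti-BrdU staining of brain sections. Adult mice (two per pool of ten compounds) got week-long intracerebroventricular infusion by mini-pump, dosed for mid-nanomolar exposure.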

[4] = system: aged Fisher rats; details: cited from earlier work
[5] = system: hippocampal neurogenesis (Dentate Gyrus); details: cited from earlier work
[6] = mice; IP, IV or oral routes; cited from earlier work
[7] = mice and rats, concentrations well above those required to stimulate hippocampal neurogenesis; cited from earlier work
[8] = molecular target: T2, Human NAMPT (Homo sapiens, UniProt P43490); experiment: in vitro NAMPT coupled-enzyme assay (NADH at OD340 nm); type: biochemical; details: for NAMPT activation: relative reaction rate normalized by the control reaction run prior to compound addition, vehicle 0.98; for activation of recombinant NAMPT enzyme: coupled assay NAMPT, NMNAT, ADH
T2 construct: made in house; host or cells: E. coli
Method: FIGS. 7A-7C. […] (FIG. 7A) P7C3-A20 was incubated at indicated concentrations in a reaction coupled with three enzymes; NAMPT, NMNAT, and ADH (Experimental Procedures). NAMPT activity was recorded for the indicated period of time at OD340 nm by measuring NADH appearance, leading to the indicated concentration-time plot. […] (FIG. 7B) Analysis of the activities of thirty P7C3 analogs was performed to assess their effects on NAMPT enzymatic activity. The reaction rate was calculated as the slope of the concentration-time curve. Relative reaction rate was normalized by the control reaction run prior to compound addition. Data represents the mean of experimental duplicates. Scatter graphs were plotted to compare the ability of compounds to activate NAMPT relative to their ability to compete away P7C3-S326 crosslinking (top scatter plot), ability to protect cells from doxorubicin-mediated toxicity (middle scatter plot), or ability to facilitate NAD restoration in doxorubicin-treated cells (bottom scatter plot). […] Data are expressed as mean±SD of duplicate independent assays.
The enzymatic activity of recombinant NAMPT was monitored in a coupled assay wherein nicotinamide conversion to NMN was followed by sequential production of NAD (via the NMNAT enzyme) and NADH (via alcohol dehydrogenase). To minimize variation, a control reaction was run in each assay prior to compound addition.
Briefly, NAMPT first converted nicotinamide to NMN, which was followed by sequential production of NAD via nicotinamide mononucleotide adenylyl-transferase (NMNAT). NAD was then reduced to NADH by alcohol dehydrogenase (Sigma) using alcohol as the substrate. The resulting NADH was monitored by OD340 nm. […] 10 mM stocks of P7C3 analogs in DMSO were further diluted in ethanol prior to applying to the reaction. To minimize variation, a control reaction was run in each assay prior to compound addition.

[9] = system: U2OS cells; experiment: doxorubicin toxicity (dox:tox) protection assay, Cell Titer Glo cell survival; type: cell-based; details: cultured U2OS cells
Source text: FIGS. 2A-2D. […] (FIG. 2A) Chemical structure of P7C3-S326. […] (FIG. 2C) Formulas used for calculating doxorubicin toxicity (dox:tox) protection activity. Protection activity is expressed by (Sinf−S0)/AC50 in the twelve-point dose response curve (DRC) corresponding to each compound, wherein both efficacy and potency of compounds were considered. Sinf represents the expected maximal protection. S0 is the baseline. […] In the photo-crosslinking assays, the p70 band intensity was quantified by Image J, and compared the sample of P7C3-S326 alone with that of P7C3-S326 plus competitor. Pearson correlation coefficient (r) and two tailed P value were determined by GraphPad Prism 6 and Spearman Rank Correlation (v1.0.1) software.
FIG. 10. Twelve-point dose response curves (DRC) of all tested compounds in doxorubicin toxicity protection assay. […] Cell viability was determined by Cell Titer Glo assay kit.
Cell survival assay was performed in 96-well plates using CellTiter-Glo Luminescent Cell Viability Assay kit (Promega) that measures cellular ATP content. The CellTiter-Glo reagent was diluted by adding 2 volumes of PBS containing 1% Triton X-100. 50 μl of diluted reagent was directly added to 100 μl of cell culture medium per well. Plates were incubated at room temperature for 10 minutes. Luminescence was recorded by Tecan […]luor Plus reader (Tecan). Cell survival was presented as the percentage of viable cells compared with untreated control, and mean±SD was calculated from duplicates. The dox:tox assay of P7C3 analogs was carried out in the HTS Core (University of Texas Southwestern Medical Center) using the EnVison multimode plate reader (Perkin Elmer).

[10] = system: neurons in living animals; details: neurogenesis, MPTP model, concussive blast injury; cited from earlier work

T2 sequence (P43490 whole entry): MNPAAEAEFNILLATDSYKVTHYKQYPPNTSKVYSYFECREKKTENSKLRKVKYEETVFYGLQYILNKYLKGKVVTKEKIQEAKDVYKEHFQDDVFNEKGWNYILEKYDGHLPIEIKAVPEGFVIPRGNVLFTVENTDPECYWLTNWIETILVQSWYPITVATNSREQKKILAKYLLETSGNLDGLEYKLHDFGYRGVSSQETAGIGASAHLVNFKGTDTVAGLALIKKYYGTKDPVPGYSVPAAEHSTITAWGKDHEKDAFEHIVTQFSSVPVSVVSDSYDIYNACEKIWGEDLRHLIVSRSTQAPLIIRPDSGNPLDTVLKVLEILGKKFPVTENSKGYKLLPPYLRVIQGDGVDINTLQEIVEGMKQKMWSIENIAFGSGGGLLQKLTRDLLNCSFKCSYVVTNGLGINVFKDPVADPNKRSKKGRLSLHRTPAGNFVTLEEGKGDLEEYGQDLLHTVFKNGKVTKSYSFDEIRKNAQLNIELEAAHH
T1 sequence (P43490 whole entry): as above

| Structure (SMILES) | Binding competition [2] | Neurogenesis # BrdU+ Cells (X10E06)/mm3 Dentate Gyrus [3] | NAMPT activation [8] | further results |
| --- | --- | --- | --- | --- |
| C#CCN(C)[C@H](C)Cc1ccccc1 [S117, Selegiline, reference compound] | 1.0 | 8.1 (X10E06)/mm3 |  | rebound of NAD levels (NAD/NADH-Glo kit) [1]: no rebound at all |
| OC(CNc1ccccc1)Cn1c2ccc(Br)cc2c2cc(Br)ccc21 (centres unmarked) [P7C3] | 2.6 | 15.0 (X10E06)/mm3 |  | body weight relative to vehicle-treated controls [4]: maintained body weight; cognitive decline [4]: abrogation of cognitive decline; enhancement in BrdU-positive hippocampal neurons ([5]; BrdU pulsed one day, then P7C3 for a month): 500%; enhanced level of BrdU-positive neurons ([5]; week-long dose of P7C3): two-fold; half-life, volume of distribution and brain penetration [6]: favorable; toxicity on prolonged administration [7]: not overtly toxic to rodents |
| COc1cccc(NC[C@@H](F)Cn2c3ccc(Br)cc3c3cc(Br)ccc32)n1 [(+)-S243] | 4.2 | 10.0 (X10E06)/mm3 | 1.13 | protection from doxorubicin-mediated toxicity (dox:tox assay) [9]: considerably less active; activity in the three in vivo assays of neuroprotection [10]: far less active |
| COc1cccc(NC[C@H](F)Cn2c3ccc(Br)cc3c3cc(Br)ccc32)n1 [(−)-S243, (S)—N-(3-(3,6-Dibromo-9H-carbazol-9-yl)-2-fluoropropyl)-6-methoxypyridin-2-amine] | 4.8 | 18.1 (X10E06)/mm3 | 1.33 | activation of recombinant NAMPT enzyme [8]: more active in stimulating NAMPT than the racemix mix; protection from doxorubicin-mediated toxicity (dox:tox assay) [9]: protective; activity in the three in vivo assays of neuroprotection [10]: active |
| Nc1ccc[n+](CC(O)Cn2c3ccc(Br)cc3c3cc(Br)ccc32)c1 (centres unmarked) [S6] | 1.4 | 8.4 (X10E06)/mm3 |  | rebound of NAD levels (NAD/NADH-Glo kit) [1]: no rebound at all |
| Cc1cc2c(cn1)[nH]c1ccc(Br)cc12 [S226] | 1.9 | 12.8 (X10E06)/mm3 | 0.96 |  |
| O=S(=O)(CC(F)Cn1c2ccc(Br)cc2c2cc(Br)ccc21)c1ccc(O)cc1 (centres unmarked) [S103] | 1.9 | 7.0 (X10E06)/mm3 | 0.97 |  |
| COc1cccc(NC(SC)C(=O)Cn2c3ccc(Br)cc3c3cc(Br)ccc32)c1 (centres unmarked) [S4] | 1.4 | 11.7 (X10E06)/mm3 | 1.01 |  |
| CC(C)(C)OC(=O)NCC(F)Cn1c2ccc(Br)cc2c2cc(Br)ccc21 (centres unmarked) [S208] | 1.2 | 13.5 (X10E06)/mm3 | 1.16 |  |
| COc1cccc(NCC(F)Cn2c3ccc(Br)cc3c3cc(Br)ccc32)n1 (racemic) [S243, N-(3-(3,6-dibromo-9H-carbazol-9-yl)-2-fluoropropyl)-6-methoxypyridin-2-amine] | 2.2 |  | 1.26 | rebound of NAD levels (NAD/NADH-Glo kit) [1]: NAD rebound; activation of recombinant NAMPT enzyme [8]: more active than the (+)P7C3-S243 enantiomer |
| COCCOCCOc1ccc(NCC(F)Cn2c3ccc(Br)cc3c3cc(Br)ccc32)cc1 (centres unmarked) [S66] | 3.5 | 9.7 (X10E06)/mm3 | 1.21 |  |
| O=C(Cn1c2ccc(Br)cc2c2cc(Br)ccc21)NS(=O)(=O)c1ccccc1 [S230] | 1.0 | 15.3 (X10E06)/mm3 | 1.02 |  |
| COc1cccc(NCC(=O)Cn2c3ccc(Br)cc3c3cc(Br)ccc32)c1 [S3] | 2.3 | 9.2 (X10E06)/mm3 | 1.06 |  |
| C#CCOc1ccc(C(=O)c2ccc(C(=O)NCC(F)Cn3c4ccc(Br)cc4c4cc(Br)ccc43)cc2)cc1 (centres unmarked) [S326, N-(3-(3,6-dibromo-9H-carbazol-9-yl)-2-fluoropropyl)-4-(4-(prop-2-yn-1-yloxy)benzoyl)benzamide] |  |  | 1.10 | activity in the in vivo neurogenesis assay ([3]; mouse, in vivo): active; protection from doxorubicin-mediated toxicity (dox:tox assay) [9]: active |
| [N-]=[N+]=NCC(F)Cn1c2ccc(Br)cc2c2cc(Br)ccc21 (centres unmarked) [S189] | 3.6 | 6.9 (X10E06)/mm3 | 1.06 |  |
